Results on 1 compound are retold here after patent publication US8445437B2, “Treatment and prevention of cardiovascular disease using mast cell stabilizers” (The Brigham and Women's Hospital, Inc., priority 2006, dated 2013).

SMILES strings stand for the structures.

In the assay the test system is LDLr-/- mice fed an atherogenic (Western) diet. Briefly: Diet-induced atherosclerosis in LDLr-/- mice with mast cell stabilization or activation. It counts as in vivo, mouse. The following applies: male LDLr-/- mice, 25 mg/kg/day daily.

In the case of `O=C(O)c1cc(=O)c2c(OCC(O)COc3cccc4oc(C(=O)O)cc(=O)c34)cccc2o1` [DSCG, disodium cromoglycate], the “reduction of atherosclerotic lesion development” value by setting is: (12 weeks) more than 50%; (26 weeks) more than 50%.
